Measured values as given in patent publication US20140296143A1, “Angiotensin-(1-7) As A Chemoprevention Agent” (Wake Forest Innovations, priority 2008, published 2014).

Tests used:
[1] = test system: lung tumors in Ki-ras^G12C mice; experiment: Ki-ras^G12C bi-transgenic mouse model of lung tumorigenesis, DOX-induced; format: in vivo
Protocol: Tumors were fixed with 4% paraformaldehyde for 24 h and incubated in 70% ethanol for 48 h prior to embedding in paraffin. The embedded tumors were cut into five micron thick sections and stained with hematoxylin and eosin to determine morphology. Cell proliferation in the tumors was detected by immunostaining with an antibody to Ki67 (1:25; Abcam, Cambridge, Mass.) using the labeled streptavidin biotin method, as described previously (Floyd et al., Carcinogenesis, 2005, 26:2196-2206). Stained sections were visualized and photographed with a video image analysis system (Scion, Inc., Frederick, Md.) and public domain software (NIH Image v1.60). A computer-assisted counting technique with a grid filter to select cells was used to quantify the immunohistochemical staining of Ki67 (Stute et al., Fertil. Steril., 2004, 82:1160-1170). The positive cells were expressed as a percentage of the total cell number examined (100 cells sampled from each tissue site within each lung tumor section).
A novel model for the induction of lung tumors in mice, a bi-transgenic mouse that expresses the mutant human Ki-ras^G12C allele in a tet-inducible and lung-specific manner was generously supplied by Dr. Mark Miller of the Department of Cancer Biology, Wake Forest University School of Medicine, for use in these experiments.
For these experiments, sixteen (16) bi-transgenic mice were produced by crossing mono-transgenic Ki-ras^G12C mice with Clara cell secretory protein-reverse tet trans-activator (CCSP-rtTA) transgenic mice. The presence of both transgenes was verified by genotyping.

[2] = test system: MAP kinase kinase 5 (MEK5); experiment: MEK5 expression in SK-LU-1 cells by RT-PCR and Western analysis; format: cell-based, human; settings: SK-LU-1, 1% serum, 10 nM, 4 and 8 h
Protocol: RNA, isolated from cells or tissue, using the TRIzol reagent (GIBCO Invitrogen, Carlsbad, Calif.), was subjected to reverse transcriptase/real-time polymerase chain reaction as previously described (Tallant et al., Am. J. Physiol. Heart Circ. Physiol., 2005, 289:1560-1566). All reactions were performed in triplicate and 18S ribosomal RNA, amplified using the TaqMan Ribosomal RNA Control Kit (Applied Biosystems), served as an internal control. The results were quantified as Ct values, where Ct is defined as the threshold cycle of PCR at which amplified product is first detected, and defined as relative gene expression (the ratio of target/control). For RT-PCR, total RNA was isolated using the Atlas Pure Total RNA Labeling System (Clontech Laboratories, Inc). The RNA concentration was quantified by UV spectroscopy and any degradation assessed by ethidium bromide staining intensity of 28S and 18S ribosomal RNA following agarose gel electrophoresis. […] Following PCR, the amplification products were separated by polyacrylamide gel electrophoresis, visualized by autoradiography, and analyzed using the MCID imaging system.
Proteins were separated electrophoretically on SDS polyacrylamide gels, transferred to polyvinyl membranes, and incubated with primary antibodies to proteins of interest. […] The density of each immunoreactive product was quantified using the MCID imaging system. […]

For `CC[C@H](C)[C@H](NC(=O)[C@H](Cc1ccc(O)cc1)NC(=O)[C@@H](NC(=O)[C@H](CCCNC(=N)N)NC(=O)[C@@H](N)CC(=O)O)C(C)C)C(=O)N[C@@H](Cc1c[nH]cn1)C(=O)N1CCC[C@H]1C(=O)O` [Ang-(1-7), Asp-Arg-Val-Tyr-Ile-His-Pro], the “Ki67 immunoreactivity in hyperplastic lesion” value ([1]; 24 μg/kg/h infusion, 84 days, saline: abundant, robust staining) was “little immunoreactivity”, the “adverse reactions or gross pathological abnormalities” value ([1]; 24 μg/kg/h intravenous infusion, 84 days) was “No adverse reactions or gross pathological abnormalities” and the lung tumor multiplicity ([1]; 24 μg/kg/h intravenous infusion, 84 days, n=8, saline 12.75±1.04) was 6.4±0.87 tumors/mice. For the same compound, the “CD34 positive cells in pulmonary lesions” value ([1]; Ang-(1-7) infusion, n=7, saline 63.5±6.1 (n=8), percentage of total cell number per FIG. 16 legend) was 37.7±5.2, the “proportion of COX-2 positive cells in hyperplasias and adenomas” value ([1]; Ang-(1-7) infusion, n=7, saline 68.8±10.2% (n=8)) was 29.3±8.2% and the “reduction in the development of new tumors” value ([1]; Ki-ras/CCSP-rtTA bi-transgenic mice, FIG. 2) was “about 50%”. The “reduction in the proportion of COX-2 positive cells” value ([1]; versus saline) was roughly 50%, the “reduction in CD34 positive cells” value ([1]; versus saline-treated animals) was roughly 40% and the “MEK5 mRNA and protein” value [2] was “reduced”.
